PubChem BioAssay AID1745844 (Carcinogenic Potency Database (CPDB), 2022)
The source made the active and inactive calls. No rule for the calls is given here.

Tested on: rodent lifetime carcinogenesis bioassay, tumor incidence TD50
Assay: chronic cancer bioassays in animals – CPDB, compiled studies (AID 1745844)

CC(C)CN(N=O)C(=N)N[N+](=O)[O-]
carcinogen call (rat, strain Wistar, males, in drinking water, site: stomach, glandular, lesion: one or several types, types not named, dosed 52 weeks, study length 78 weeks): negative (inactive)

O=C[C@H](NC(=O)N(CCCl)N=O)[C@@H](O)[C@H](O)[C@H](O)CO
TD50 (rat, strain Sprague-Dawley, females, i.p., site: any site (literature study), lesion: malignant tumor, dosed 88 weeks, study length 114 weeks): 0.108 mg/kg/day
TD50 (rat, strain Sprague-Dawley, females, i.p., site: peritoneal cavity, lesion: several types, types named in the paper, dosed 88 weeks, study length 114 weeks): 0.0844 mg/kg/day
TD50 (rat, strain Sprague-Dawley, males, i.p., site: any site (literature study), lesion: malignant tumor, dosed 77 weeks, study length 100 weeks): 0.0521 mg/kg/day
TD50 (rat, strain Sprague-Dawley, males, i.p., site: peritoneal cavity, lesion: several types, types named in the paper, dosed 77 weeks, study length 100 weeks): 0.0241 mg/kg/day

NCCNc1cccc2ccccc12
carcinogen call (mouse, strain B6C3F1, females, in feed, site: any site (literature study), lesion: several types, types named in the paper, dosed 104 weeks, study length 106 weeks): negative (inactive)
TD50 (mouse, strain B6C3F1, females, in feed, site: liver, lesion: hepatocellular adenoma + hepatocellular carcinoma + neoplastic nodule, dosed 104 weeks, study length 106 weeks): 25600 mg/kg/day
TD50 (mouse, strain B6C3F1, females, in feed, site: lung, lesion: alveolar/bronchiolar adenoma + alveolar/bronchiolar carcinoma, dosed 104 weeks, study length 106 weeks): 4390 mg/kg/day
carcinogen call (mouse, strain B6C3F1, males, in feed, site: any site (literature study), lesion: several types, types named in the paper, dosed 104 weeks, study length 104 weeks): negative (inactive)
TD50 (rat, strain Fischer 344, females, in feed, site: liver, lesion: hepatocellular adenoma + hepatocellular carcinoma + neoplastic nodule, dosed 104 weeks, study length 107 weeks): 93.5 mg/kg/day
TD50 (rat, strain Fischer 344, females, in feed, site: liver, lesion: hepatocellular carcinoma + neoplastic nodule, dosed 104 weeks, study length 107 weeks): 93.5 mg/kg/day (inactive)
TD50 (rat, strain Fischer 344, males, in feed, site: any site (literature study), lesion: several types, types named in the paper, dosed 104 weeks, study length 107 weeks): 41.6 mg/kg/day (inactive)

Cc1ccccc1OCC(O)CNCCn1cc(C)c(=O)[nH]c1=O (configuration not stated)
TD50 (mouse, strain Charles River CD1, females, in feed, site: any site (literature study), lesion: several types, types named in the paper, dosed 78 weeks, study length 78 weeks): 52.3 mg/kg/day
TD50 (mouse, strain Charles River CD1, females, in feed, site: liver, lesion: hepatocellular carcinoma, dosed 78 weeks, study length 78 weeks): 1670 mg/kg/day
TD50 (mouse, strain Charles River CD1, females, in feed, site: lung, lesion: adenocarcinoma, dosed 78 weeks, study length 78 weeks): 1670 mg/kg/day
TD50 (mouse, strain Charles River CD1, females, in feed, site: lung, lesion: adenoma, dosed 78 weeks, study length 78 weeks): 449 mg/kg/day
TD50 (mouse, strain Charles River CD1, males, in feed, site: liver, lesion: hepatocellular carcinoma, dosed 78 weeks, study length 78 weeks): 935 mg/kg/day
